The text below walks through data of patent US12171224B2, “Choline salt and ammonium-free adjuvants for water conditioning and agricultural formulations” (SPECIALTY OPERATIONS FRANCE, priority 2015, dated 2024).

Holding throughout (conditions): 1000 ppm water, after 21 days
Test [1] concerns Velvet leaf. The experiment in a line: Greenhouse weed control study, velvetleaf.
Method: (§1) A greenhouse study was conducted to evaluate efficacy benefits of several candidates.
(§2) Procedure: Product application was made using a DeVries spray booth calibrated to 10 gpa, 40 psi with flat-fan AIXR11002 nozzle. Test plants were placed in a certain zone (Zone 3) of research greenhouse on a wire-mesh raised bench and arranged in a randomized complete block design. […] Environmental conditions averaged high temperature 87° F. to low temperature of 75° F. during trial dates. Average humidity levels ranged from 40% to 90%. Test plants received natural lighting for duration of trial. Test plants were soil watered every twenty-four (24) hours as needed.
(§3) Weeds were evaluated for percent control at 3, 7, 14, and 21-days following application.
(§4) Rating scale used; 0 indicating no control/injury up to 100 indicating complete control of weed species as compared to the untreated check.
For test [2], the system named is Yellow foxtail. The test is described as follows: Greenhouse weed control study, yellow foxtail.
Method: as §1, §2, §3, §4
In test [3] the test system is Common barnyardgrass. The test is described as follows: Greenhouse weed control study, common barnyardgrass.
Method: as §1, §2, §3, §4
Test [4] concerns Ivyleaf morning glory. The experiment in a line: Greenhouse weed control study, ivyleaf morning glory.
Method: as §1, §2, §3, §4
Test [5] deals with Weeds. The test is described as follows: Greenhouse weed control study, average over the four weeds.
Method: as §1, §2, §3, §4
Where [6] appears, read: (80% liquid) 1%, use rate 1 % w/w.
[7] abbreviates: (55% soln) 0.18%, use rate 0.18 % w/w.
Where [8] appears, read: (55% soln) 0.45%, use rate 0.45 % w/w.

As to `C[N+](C)(C)CCO.O=C([O-])CC(O)(CC(=O)O)C(=O)O` [Choline Dihydrogen Citrate], the “Velvet leaf percent control” value in test [1] (0.4%, use rate 0.4 % w/w) came to 20%. Further, in test [2] (0.4%, use rate 0.4 % w/w), the “Yellow foxtail percent control” value came to 40%. The “Common barnyardgrass percent control” value in test [3] (0.4%, use rate 0.4 % w/w) is 83.3%. Besides, the “Ivyleaf morning glory percent control” value in test [4] (0.4%, use rate 0.4 % w/w) is 26.7%. In addition, the Average percent control in test [5] (0.4%, use rate 0.4 % w/w) is recorded as 42.5%.
Turning to Choline bicarbonate, the “Velvet leaf percent control” value in test [1] (setting [6]) is listed as 15%. Also, the “Yellow foxtail percent control” value in test [2] (setting [6]) amounted to 83.3%. The “Common barnyardgrass percent control” value in test [3] (setting [6]) stood at 30%. The “Ivyleaf morning glory percent control” value in test [4] (setting [6]) turned out to be 10%. In test [5] (setting [6]), this molecule displayed an Average percent control of 34.575%.
Consider `O=C(O)CC(O)(CC(=O)O)C(=O)O` [Citric acid], for which the “Velvet leaf percent control” value in test [1] (setting [7]) and in test [1] (setting [8]) was 15% each time. In addition, the “Yellow foxtail percent control” value was 36.7% in test [2] (setting [7]) and 50% in test [2] (setting [8]). Moreover, the “Common barnyardgrass percent control” value in test [3] (setting [7]) was determined as 83.3%; in test [3] (setting [8]) it was 60%. In addition, the “Ivyleaf morning glory percent control” value amounted to 16.7% in test [4] (setting [7]) and 20% in test [4] (setting [8]). Also, the Average percent control came to 37.925% in test [5] (setting [7]) and 36.25% in test [5] (setting [8]).
As for `N.N.O=S(=O)(O)O` [Ammonium Sulfate], the “Velvet leaf percent control” value stood at 18.3% in test [1] (1%, use rate 2.5 % w/w) and 18.3% in test [1] (2%, use rate 5 % w/w). Also, the “Yellow foxtail percent control” value in test [2] (1%, use rate 2.5 % w/w) amounted to 40%; in test [2] (2%, use rate 5 % w/w), 40%. In addition, the “Common barnyardgrass percent control” value in test [3] (1%, use rate 2.5 % w/w) turned out to be 80%; in test [3] (2%, use rate 5 % w/w), 90%. The “Ivyleaf morning glory percent control” value in test [4] (1%, use rate 2.5 % w/w) is 20%; in test [4] (2%, use rate 5 % w/w) it was 18.3%. Also, the Average percent control is on record as 39.575% in test [5] (1%, use rate 2.5 % w/w) and 41.65% in test [5] (2%, use rate 5 % w/w).
